Results: article PMC8237258 (Journal of Medicinal Chemistry, 2021)
“And” between values parts separate entries of the source, which are not always exact repeats. Equal entries are not always repeated. Where a SMILES comes first, the peptide text is derived from it. Bridges are numbered along the chain shown (N, C = ends). [ ]: non-standard residue; d: D form.

Legend:
in vitro [1] = conditions: simulated gi fluid, pH 1.3
GC-C receptor = GC-C receptor (Homo sapiens, UniProt P25092); assay: cell-based
Sequence of GC-C receptor (P25092 24-1073 limits assumed): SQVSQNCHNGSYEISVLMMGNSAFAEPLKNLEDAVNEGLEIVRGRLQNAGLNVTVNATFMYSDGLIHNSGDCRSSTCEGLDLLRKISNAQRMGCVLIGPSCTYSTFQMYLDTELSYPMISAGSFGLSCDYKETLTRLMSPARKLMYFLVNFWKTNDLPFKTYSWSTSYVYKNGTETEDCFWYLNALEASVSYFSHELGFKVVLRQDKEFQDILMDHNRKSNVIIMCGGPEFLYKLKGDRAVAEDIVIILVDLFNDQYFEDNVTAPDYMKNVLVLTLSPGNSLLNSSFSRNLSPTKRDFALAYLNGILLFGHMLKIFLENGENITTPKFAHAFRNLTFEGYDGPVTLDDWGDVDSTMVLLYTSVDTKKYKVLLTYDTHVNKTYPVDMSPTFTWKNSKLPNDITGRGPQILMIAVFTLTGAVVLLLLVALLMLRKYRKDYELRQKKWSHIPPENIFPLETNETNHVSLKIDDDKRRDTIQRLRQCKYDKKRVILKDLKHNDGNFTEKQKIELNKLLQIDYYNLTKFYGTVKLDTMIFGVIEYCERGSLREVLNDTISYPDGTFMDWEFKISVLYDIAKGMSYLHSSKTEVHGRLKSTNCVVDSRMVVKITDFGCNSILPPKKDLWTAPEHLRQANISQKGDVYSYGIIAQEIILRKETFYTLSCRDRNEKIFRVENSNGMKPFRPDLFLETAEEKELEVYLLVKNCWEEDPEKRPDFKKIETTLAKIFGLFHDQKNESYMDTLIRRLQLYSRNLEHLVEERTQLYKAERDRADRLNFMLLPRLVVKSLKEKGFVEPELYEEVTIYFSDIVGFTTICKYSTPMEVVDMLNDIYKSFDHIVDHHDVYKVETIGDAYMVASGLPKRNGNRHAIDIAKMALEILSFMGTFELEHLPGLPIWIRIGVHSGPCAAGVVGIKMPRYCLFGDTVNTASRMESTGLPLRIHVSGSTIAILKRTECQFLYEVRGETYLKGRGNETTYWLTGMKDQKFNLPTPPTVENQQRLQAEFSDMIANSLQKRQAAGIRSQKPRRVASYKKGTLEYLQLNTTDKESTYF

in vitro [2] = conditions: pig, simulated gi fluid, pH 6.8
[3] = biological target: guanylate cyclase-C (human (endogenous in T84)) (UniProt P25092)
Sequence of guanylate cyclase-C (human (endogenous in T84)) (P25092 24-1073): as the sequence (P25092 24-1073 limits assumed) above

[4] = in vivo; cited from earlier work

| Compound | half-life (in vitro [1]) | EC50 (GC-C receptor) | half-life (in vitro [2]) | EC50 of cGMP accumulation in human T84 cells (cGMP HTRF assay kit) [3] | further results |
| --- | --- | --- | --- | --- | --- |
| C[C@@H]1NC(=O)[C@@H]2CCCN2C(=O)[C@H](CC(N)=O)NC(=O)[C@@H]2CSSC[C@H](N)C(=O)N[C@H]3CSSC[C@H](NC1=O)C(=O)N[C@@H]([C@@H](C)O)C(=O)NCC(=O)N[C@H](C(N)=O)CSSC[C@H](NC(=O)[C@H](Cc1ccc(O)cc1)NC(=O)[C@H](CCC(=O)O)NC3=O)C(=O)N2 [[desTyr^14]-Linaclotide-NH2] (H-CCEYCCNPACTGC-NH2; disulfide 1-6, 2-10, 5-13) | > 8 h | 0.0337 ± 0.0057 µM | > 8 h | – | – |
| [D-Tyr^14]-Linaclotide (peptide) | – | – | – | 0.0165 µM | – |
| C[C@@H]1NC(=O)[C@@H]2CCCN2C(=O)[C@H](CC(N)=O)NC(=O)[C@@H]2CSSC[C@H](N)C(=O)N[C@H]3CSSC[C@H](NC1=O)C(=O)N[C@@H]([C@@H](C)O)C(=O)NCC(=O)N[C@H](C(=O)N[C@H](Cc1ccc(O)cc1)C(N)=O)CSSC[C@H](NC(=O)[C@H](Cc1ccc(O)cc1)NC(=O)[C@H](CCC(=O)O)NC3=O)C(=O)N2 [[D-Tyr^14]-Linaclotide] (H-CCEYCCNPACTGC[dY]-NH2; disulfide 1-6, 2-10, 5-13) | > 8 h | 0.0165 ± 0.0058 µM | > 8 h | – | EC50/EC50 linaclotide fold (GC-C receptor): 4.5 fold |
| [desTyr^14]-Linaclotide-NH2 (peptide) | – | – | – | 0.0337 µM | – |
| [cyclic]-Linaclotide (peptide) | – | – | – | 2.99 µM | – |
| [Sec^1,6; D-Tyr^14]-Linaclotide (peptide) | – | – | – | 0.005 µM | – |
| C[C@@H]1NC(=O)[C@@H]2CCCN2C(=O)[C@H](CC(N)=O)NC(=O)[C@@H]2CSSC[C@H](N)C(=O)N[C@H]3CSSC[C@H](NC1=O)C(=O)N[C@@H]([C@@H](C)O)C(=O)NCC(=O)N[C@H](C(=O)N[C@@H](Cc1ccc(O)cc1)C(N)=O)CSSC[C@H](NC(=O)[C@H](Cc1ccc(O)cc1)NC(=O)[C@H](CCC(=O)O)NC3=O)C(=O)N2 [Linaclotide-NH2] (H-CCEYCCNPACTGCY-NH2; disulfide 1-6, 2-10, 5-13) | > 8 h | 0.0072 ± 0.0021 µM | > 8 h | – | – |
| C[C@@H]1NC(=O)[C@@H]2CCCN2C(=O)[C@H](CC(N)=O)NC(=O)[C@@H]2CSSC[C@@H]3NC(=O)[C@H](Cc4ccc(O)cc4)NC(=O)[C@@H]4CSSC[C@H](NC(=O)[C@H](Cc5ccc(O)cc5)NC(=O)[C@H](CCC(=O)O)NC(=O)[C@H](CSSC[C@H](NC1=O)C(=O)N[C@@H]([C@@H](C)O)C(=O)NCC(=O)N4)NC3=O)C(=O)N2 [[cyclic]-Linaclotide] (cyclo(ACTGCYCCEYCCNP); disulfide 2-8, 5-11, 7-12) | > 8 h | 2.99 ± 0.929 µM | > 8 h | – | EC50/EC50 linaclotide fold (GC-C receptor): 808 fold and ~800 fold |
| C[C@@H]1NC(=O)[C@@H]2CCCN2C(=O)[C@H](CC(N)=O)NC(=O)[C@@H]2CSSC[C@H](N)C(=O)N[C@H]3CSSC[C@H](NC1=O)C(=O)N[C@@H]([C@@H](C)O)C(=O)NCC(=O)N[C@H](C(=O)N[C@@H](Cc1ccc(O)cc1)C(=O)O)CSSC[C@H](NC(=O)[C@H](Cc1ccc(O)cc1)NC(=O)[C@H](CCC(=O)O)NC3=O)C(=O)N2 [Linaclotide, reference compound] (H-CCEYCCNPACTGCY-OH; disulfide 1-6, 2-10, 5-13 (inferred)) | > 8 h | 0.0037 ± 0.0005 µM | 0.8 h | – | absorption into the systemic circulation [4]: insignificant; amount excreted in the feces [4]: 3–5% |
| [D-Val^14]-Linaclotide (peptide) | – | – | – | 0.104 µM | – |
| CC(C)[C@@H](NC(=O)[C@@H]1CSSC[C@@H]2NC(=O)[C@H](Cc3ccc(O)cc3)NC(=O)[C@H](CCC(=O)O)NC(=O)[C@@H]3CSSC[C@H](NC(=O)[C@H](C)NC(=O)[C@@H]4CCCN4C(=O)[C@H](CC(N)=O)NC(=O)[C@H](CSSC[C@H](N)C(=O)N3)NC2=O)C(=O)N[C@@H]([C@@H](C)O)C(=O)NCC(=O)N1)C(N)=O [[D-Val^14]-Linaclotide] (H-CCEYCCNPACTGC[dV]-NH2; disulfide 1-6, 2-10, 5-13) | > 8 h | 0.104 ± 0.0216 µM | > 8 h | – | EC50/EC50 linaclotide fold (GC-C receptor): 28 fold; fold less potent than [D-Tyr^14]-Linaclotide (GC-C receptor): 6 fold |
| Linaclotide-NH2 (peptide) | – | – | – | 0.0072 µM | – |
| Linaclotide (peptide) | – | – | – | 0.0037 µM | – |
